A value given as a limit tells only on which side of the number the result lay.

One assay concerns the target T1, Recombinant human cathepsin A (Homo sapiens, UniProt P10619).
T1 construct: Recombinant human cathepsin A (residues 29-480, with a C-terminal 10-His tag); 10-His (C); purchased R&D Systems 1049-SE
T1 sequence (P10619 29-312 limits assumed): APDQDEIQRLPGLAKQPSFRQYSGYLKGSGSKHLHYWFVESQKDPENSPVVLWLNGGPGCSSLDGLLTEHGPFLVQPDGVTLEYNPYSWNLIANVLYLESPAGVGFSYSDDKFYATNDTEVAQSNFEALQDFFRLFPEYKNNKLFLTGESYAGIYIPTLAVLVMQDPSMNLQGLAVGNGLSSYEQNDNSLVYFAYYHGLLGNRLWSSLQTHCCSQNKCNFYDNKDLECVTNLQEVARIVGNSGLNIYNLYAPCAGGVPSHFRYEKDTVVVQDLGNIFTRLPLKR
T1 sequence (P10619 327-480 limits assumed): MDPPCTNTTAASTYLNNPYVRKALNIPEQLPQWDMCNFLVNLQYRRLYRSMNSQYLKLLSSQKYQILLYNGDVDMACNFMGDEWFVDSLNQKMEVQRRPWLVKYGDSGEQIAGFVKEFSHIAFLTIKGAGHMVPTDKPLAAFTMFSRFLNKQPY
Description: Cathepsin A inhibitory activity. The format is biochemical. As to conditions: pharmacological test "Cathepsin A inhibitory activity"; IC50 given as class A/B/C; read-out: Activity (2): Cathepsin A inhibitory activity, IC50 class. In outline:
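Read-out was microfluidic separation of cleaved vs. uncleaved Bodipy FL-bradykinin (2 μM), giving turnover, % inhibition and IC50. Compound and 833 ng/ml enzyme met for 15 min RT in pH 5.5 MES/DTT before substrate (15 min RT). The 29-480 His-tagged human enzyme was first activated by cathepsin L, then E-64 (10 μM).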
What is called IC50 is the midpoint of a concentration-inhibition curve. For `O=C(O)CC(NC(=O)c1cc(O)n(-c2ccccc2Cl)n1)c1ccc(OC(F)(F)F)cc1` (stereo not drawn) [Example 215], the 50% inhibitory concentration (IC50) was 100 to 1000 nM.

With `O=C(O)C[C@H](NC(=O)c1cc(O)n(-c2ccccc2Cl)n1)c1cccc(C(F)(F)F)c1` [Example 218], the IC50 lay in the range of 100 to 1000 nM.

For the compound `Cc1cccc(C(CC(=O)O)NC(=O)c2cc(O)n(-c3cccc(Cl)c3)n2)c1C` (stereo not drawn) [Example 261], the IC50 lay within 100 to 1000 nM.

For the compound `COc1cccc([C@H](CC(=O)O)NC(=O)c2cc(O)n(-c3ccccc3)n2)c1OC` [Example 170], the IC50 lay within 100 to 1000 nM.

Regarding `O=C(O)CC(NC(=O)c1cc(O)n(-c2ccccc2F)n1)c1ccccc1F` (stereo not drawn) [Example 233], the 50% inhibitory concentration (IC50) was in the range of 100 to 1000 nM.

The same assay, now with this note: read-out: Activity (2): Cathepsin A inhibitory activity (IC50 class).
As to `CCOc1cc(C(=O)NC(CC(=O)O)c2ccc(F)cc2)nn1-c1ccccc1Cl` (stereo not drawn) [Example 739], the half-maximal inhibitory concentration (IC50) lay in the range of 100 to 1000 nM.

As to `Cc1ccccc1[C@H](CC(=O)O)NC(=O)c1cc(OCC(O)C(C)(C)C)n(-c2ccccc2F)n1` (stereo partly drawn) [Example 744, (S)-3-{[1-(2-Fluoro-phenyl)-5-(2-hydroxy-3,3-dimethyl-butoxy)-1H-pyrazole-3-carbonyl]-amino}-3-o-tolyl-propionic acid], the concentration for half-maximal inhibition (IC50) is less than 100 nM.

With `COc1cc(C(=O)NC(CC(=O)O)c2ccc(-c3ccc(F)cc3)cc2)nn1-c1ccccc1F` (stereo not drawn) [Example 543], the 50% inhibitory concentration (IC50) fell in the range of 100 to 1000 nM.

For the compound `O=C(O)CC(NC(=O)c1cc(O)n(-c2ccccc2F)n1)c1ccc(-c2ccccc2F)cc1` (stereo not drawn) [Example 584], the half-maximal inhibitory concentration (IC50) was 100 to 1000 nM.

As for `Cc1ccccc1[C@H](CC(=O)O)NC(=O)c1cc(OCC(=O)N(C)C)n(-c2ccccc2F)n1` [Example 615], the IC50 is less than 100 nM.

Consider `Cc1ccccc1[C@H](CC(=O)O)NC(=O)c1cc(OCC2CCOCC2)n(-c2ccccc2F)n1` [Example 627], for which the 50% inhibitory concentration (IC50) is less than 100 nM.

As for `CCOc1cc(C(=O)N[C@@H](CC(=O)O)c2ccccc2C(F)(F)F)nn1-c1ccccc1Cl` [Example 741], the half-inhibitory concentration (IC50) lay within 100 to 1000 nM.

Turning to `COc1ccc(C(CC(=O)O)NC(=O)c2cc(OCC3CC3)n(-c3ccccc3F)n2)c(C)c1` (stereo not drawn) [Example 692], the half-maximal inhibitory concentration (IC50) is less than 100 nM.

`O=C(O)CC(NC(=O)c1cc(O)n(-c2ccccc2)n1)c1ccc(-n2cccn2)cc1` (stereo not drawn) [Example 578]: the 50% inhibitory concentration (IC50) lay in the range of 1000 to 30000 nM.

In the case of `CCOc1cc(C(=O)N[C@@H](CC(=O)O)c2ccccc2C)nn1-c1ccccc1F` [Example 662], the half-inhibitory concentration (IC50) was less than 100 nM.

On to `Cc1ccccc1[C@H](CC(=O)O)NC(=O)c1cc(OCc2ccccn2)n(-c2ccccc2F)n1` [Example 640], for which the concentration for half-maximal inhibition (IC50) was less than 100 nM.

As to `O=C(O)CC(NC(=O)c1cc(O)n(-c2ccccc2Cl)n1)c1ccc(-c2cccc(Cl)c2)cc1` (stereo not drawn) [Example 540], the IC50 lay within 100 to 1000 nM.

Staying with this assay, now noted: read-out: Activity (2): Cathepsin A inhibitory activity, IC50 class.
Regarding `O=C(O)CC(NC(=O)c1cc(O)n(-c2ccccc2)n1)c1cccc(F)c1` (stereo not drawn) [Example 63], the concentration for half-maximal inhibition (IC50) was in the range of 1000 to 30000 nM.

As for `COc1ccc(C(CC(=O)O)NC(=O)c2cc(O)n(-c3ccccc3Cl)n2)c(F)c1` (stereo not drawn) [Example 132], the 50% inhibitory concentration (IC50) lay within 100 to 1000 nM.

Take `CCCCC(CC(=O)O)NC(=O)c1cc(O)n(-c2cc(C)ccc2C)n1` (stereo not drawn) [Example 33]: the IC50 lay within 1000 to 30000 nM.

Take `O=C(O)CC(NC(=O)c1cc(O)n(-c2ccccc2)n1)c1ccc(F)c(F)c1` (stereo not drawn) [Example 60]: the IC50 lay within 1000 to 30000 nM.

Take `CC(C)(C)[C@](C)(O)COc1cc(C(=O)N[C@@H](CC(=O)O)c2ccccc2C(F)(F)F)nn1-c1ccccc1F` [Example 799, (S)-3-{[1-(2-Fluoro-phenyl)-5-((S)-2-hydroxy-2,3,3-trimethyl-butoxy)-1H-pyrazole-3-carbonyl]-amino}-3-(2-trifluoromethyl-phenyl)-propionic acid]: the half-inhibitory concentration (IC50) is less than 100 nM.

With `COc1ccc([C@H](CC(=O)O)NC(=O)c2cc(O)n(-c3ccc(F)cc3F)n2)cn1` [Example 390], the IC50 fell in the range of 100 to 1000 nM.

Turning to `Cc1cccc([C@H](CC(=O)O)NC(=O)c2cc(OC[C@H](O)C(C)(C)C)n(-c3ccccc3F)n2)c1` [Example 804, (S)-3-{[1-(2-Fluoro-phenyl)-5-((R)-2-hydroxy-3,3-dimethyl-butoxy)-1H-pyrazole-3-carbonyl]-amino}-3-m-tolyl-propionic acid], the IC50 was less than 100 nM.

On to `O=C(O)C[C@H](NC(=O)c1cc(O)n(-c2ccc(F)cc2F)n1)c1c(F)cccc1F` [Example 388], for which the half-maximal inhibitory concentration (IC50) lay within 100 to 1000 nM.

For the compound `N#Cc1ccc([C@H](CC(=O)O)NC(=O)c2cc(O)n(-c3cccc(F)c3)n2)cc1` [Example 305], the concentration for half-maximal inhibition (IC50) is 100 to 1000 nM.

For the compound `CC(C)CC(CC(=O)O)NC(=O)c1cc(OC[C@](C)(O)C(C)C)n(-c2ccccc2F)n1` (stereo partly drawn) [Example 823, 3-{[1-(2-Fluoro-phenyl)-5-((R)-2-hydroxy-2,3-dimethyl-butoxy)-1H-pyrazole-3-carbonyl]-amino}-5-methyl-hexanoic acid], the half-inhibitory concentration (IC50) fell in the range of 100 to 1000 nM.

As to `CC(C)[C@](C)(O)COc1cc(C(=O)N[C@@H](CC(=O)O)c2ccc(F)cc2)nn1-c1ccccc1F` [Example 872, (S)-3-(4-Fluoro-phenyl)-3-{[1-(2-fluoro-phenyl)-5-((S)-2-hydroxy-2,3-dimethyl-butoxy)-1H-pyrazole-3-carbonyl]-amino}-propionic acid], the half-inhibitory concentration (IC50) was in the range of 100 to 1000 nM.

In the case of `O=C(O)C[C@H](NC(=O)c1cc(O)n(-c2cccc(F)c2)n1)c1ccccc1C(F)(F)F` [Example 329], the concentration for half-maximal inhibition (IC50) was 100 to 1000 nM.

With `Cc1cccc(C(CC(=O)O)NC(=O)c2cc(O)n(-c3ccccc3)n2)c1C` (stereo not drawn) [Example 377], the IC50 was in the range of 100 to 1000 nM.

As for `O=C(O)CC(NC(=O)c1cc(O)n(-c2ccc(Cl)cc2)n1)c1cccc(Cl)c1F` (stereo not drawn) [Example 288], the half-maximal inhibitory concentration (IC50) lay within 1000 to 30000 nM.

Regarding `Cc1ccccc1[C@H](CC(=O)O)NC(=O)c1cc(O)n(-c2ccc(F)cc2)n1` [Example 76], the IC50 was less than 100 nM.

With `O=C(O)C[C@H](NC(=O)c1cc(O)n(-c2ccccc2F)n1)c1cccc(Cl)c1` [Example 401], the IC50 is 100 to 1000 nM.

`O=C(O)CC(NC(=O)c1cc(O)n(-c2ccccc2Cl)n1)c1cccc(Cl)c1` (stereo not drawn) [Example 391]: the IC50 was 100 to 1000 nM.

Turning to `O=C(O)CC(NC(=O)c1cc(O)n(-c2ccccc2)n1)c1ccc(F)cc1` (stereo not drawn) [Example 61], the IC50 was 1000 to 30000 nM.

In the case of `O=C(O)CC(NC(=O)c1cc(O)n(-c2cccc(F)c2)n1)c1ccc(-c2cccc(F)c2)cc1` (stereo not drawn) [Example 319], the IC50 was 100 to 1000 nM.

In the case of `Cc1ccc(C)c(-n2nc(C(=O)NC(CC(=O)O)c3cccc(C(F)(F)F)c3)cc2O)c1` (stereo not drawn) [Example 53], the IC50 is 1000 to 30000 nM.

Still in this assay, the particulars now being: recombinant human cathepsin A 833 ng/ml, Bodipy FL-labeled bradykinin 2 μM, pH 5.5; read-out: CATH-A IC50.
As for `O=C(O)CC(NC(=O)c1cc(O)n(-c2cccc(Cl)c2)n1)c1cccc(C(F)(F)F)c1F` (stereo not drawn) [Example 418, 3-{[1-(3-Chloro-phenyl)-5-hydroxy-1H-pyrazole-3-carbonyl]-amino}-3-(2-fluoro-3-trifluoromethyl-phenyl)-propionic acid], the concentration for half-maximal inhibition (IC50) is 5290 nM.

For `COc1ccc(F)cc1C(CC(=O)O)NC(=O)c1cc(O)n(-c2ccc(F)cc2)n1` (stereo not drawn) [Example 525, 3-(5-Fluoro-2-methoxy-phenyl)-3-{[1-(4-fluoro-phenyl)-5-hydroxy-1H-pyrazole-3-carbonyl]-amino}-propionic acid], the IC50 is 1510 nM.

The same assay, now with this note: recombinant human cathepsin A; read-out: Activity (2): Cathepsin A inhibitory activity, IC50 class.
Regarding `O=C(O)CC(NC(=O)c1cc(O)n(-c2cccc(Cl)c2)n1)c1cccc(C(F)(F)F)c1F` (stereo not drawn) [Example 418, 3-{[1-(3-Chloro-phenyl)-5-hydroxy-1H-pyrazole-3-carbonyl]-amino}-3-(2-fluoro-3-trifluoromethyl-phenyl)-propionic acid], the half-maximal inhibitory concentration (IC50) lay within 1000 to 30000 nM.

With `COc1ccc(F)cc1C(CC(=O)O)NC(=O)c1cc(O)n(-c2ccc(F)cc2)n1` (stereo not drawn) [Example 525, 3-(5-Fluoro-2-methoxy-phenyl)-3-{[1-(4-fluoro-phenyl)-5-hydroxy-1H-pyrazole-3-carbonyl]-amino}-propionic acid], the 50% inhibitory concentration (IC50) lay within 1000 to 30000 nM.

With `COc1cc(C(=O)N[C@@H](CC(=O)NCC(C)C)c2ccccc2C)nn1-c1ccccc1F` [Example 919, 1-(2-Fluoro-phenyl)-5-methoxy-1H-pyrazole-3-carboxylic acid ((S)-2-isobutylcarbamoyl-1-o-tolyl-ethyl)-amide], the IC50 was in the range of 1000 to 30000 nM.
